9 compounds from patent US20260232658A1, “AZETIDINYL BENZOXAZOLE COMPOUNDS AND THEIR USE AS MER AND AXL INHIBITORS” (DONG-A ST CO., LTD., priority 2022, published 2026) can be followed below.

Each structure is given as a SMILES string.

One assay relates to MC-38 cells. Description: MC-38 Efficacy Assay (tumor growth inhibition). It is filed as in vivo, Female C57BL/6 mice. The following applies: once a day for 21 days, subcutaneous MC-38 tumors in C57BL/6 mice.
In a further assay the target is T1, TYRO3 (455-end) (Homo sapiens, UniProt Q06418).
T1 construct: TYRO3 (455-end); purchased SignalChem, Canada
T1 sequence (Q06418 455-890 limits assumed): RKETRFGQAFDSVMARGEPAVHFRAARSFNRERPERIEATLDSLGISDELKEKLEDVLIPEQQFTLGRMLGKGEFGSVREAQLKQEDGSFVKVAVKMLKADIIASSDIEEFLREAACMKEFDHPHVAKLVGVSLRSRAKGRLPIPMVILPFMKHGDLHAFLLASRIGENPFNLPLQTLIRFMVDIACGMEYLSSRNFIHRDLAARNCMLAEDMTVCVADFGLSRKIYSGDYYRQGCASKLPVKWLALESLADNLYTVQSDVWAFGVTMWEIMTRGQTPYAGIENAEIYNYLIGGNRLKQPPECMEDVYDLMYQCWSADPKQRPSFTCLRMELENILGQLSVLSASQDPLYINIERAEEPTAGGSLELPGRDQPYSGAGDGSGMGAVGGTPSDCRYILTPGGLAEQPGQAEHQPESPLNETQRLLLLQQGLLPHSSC
Put plainly: HTRF kinase activity biochemical assay, TYRO3.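 Further: biotinylated tyrosine kinase substrate phosphorylation detected via streptavidin-XL665 and Eu3+-cryptate anti-phospho antibody time-resolved fluorescence, read after 1 h detection at room temperature, 384-well format.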 Conditions: recombinant kinase, 10 uM ATP, 30 minutes pre-incubation; read-out: HTRF TYRO IC50. (TR-FRET usually uses a lanthanide donor and a delayed reading to cut background.)

The target in a further assay is T2, human AXL (473-end) (Homo sapiens, UniProt P30530).
T2 construct: human AXL (473-end); purchased SignalChem, Canada
T2 sequence (P30530 473-894 limits assumed): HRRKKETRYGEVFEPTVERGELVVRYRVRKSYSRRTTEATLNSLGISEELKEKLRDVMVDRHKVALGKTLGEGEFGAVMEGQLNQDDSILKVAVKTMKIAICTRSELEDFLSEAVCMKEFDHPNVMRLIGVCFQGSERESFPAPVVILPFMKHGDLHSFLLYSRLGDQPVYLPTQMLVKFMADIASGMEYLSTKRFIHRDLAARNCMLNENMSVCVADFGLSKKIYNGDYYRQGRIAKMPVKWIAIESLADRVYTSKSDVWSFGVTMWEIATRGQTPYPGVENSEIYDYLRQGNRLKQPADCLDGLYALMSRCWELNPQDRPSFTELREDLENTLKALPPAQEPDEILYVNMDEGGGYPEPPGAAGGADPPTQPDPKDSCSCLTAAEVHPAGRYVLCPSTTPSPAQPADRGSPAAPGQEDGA
Put plainly: HTRF kinase activity biochemical assay, AXL.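 Further: phosphorylation of a biotinylated tyrosine kinase substrate detected via Eu3+-cryptate anti-TK antibody and streptavidin-XL665, fluorescence read after a 1 h incubation at room temperature.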 Conditions: recombinant kinase, 10 uM ATP, 30 minutes pre-incubation; read-out: HTRF AXL IC50.

In the next assay the target is T3, human MER (528-end) (Homo sapiens, UniProt Q12866).
T3 construct: human MER (528-end); purchased Carnabio, Japan
T3 sequence (Q12866 528-999 limits assumed): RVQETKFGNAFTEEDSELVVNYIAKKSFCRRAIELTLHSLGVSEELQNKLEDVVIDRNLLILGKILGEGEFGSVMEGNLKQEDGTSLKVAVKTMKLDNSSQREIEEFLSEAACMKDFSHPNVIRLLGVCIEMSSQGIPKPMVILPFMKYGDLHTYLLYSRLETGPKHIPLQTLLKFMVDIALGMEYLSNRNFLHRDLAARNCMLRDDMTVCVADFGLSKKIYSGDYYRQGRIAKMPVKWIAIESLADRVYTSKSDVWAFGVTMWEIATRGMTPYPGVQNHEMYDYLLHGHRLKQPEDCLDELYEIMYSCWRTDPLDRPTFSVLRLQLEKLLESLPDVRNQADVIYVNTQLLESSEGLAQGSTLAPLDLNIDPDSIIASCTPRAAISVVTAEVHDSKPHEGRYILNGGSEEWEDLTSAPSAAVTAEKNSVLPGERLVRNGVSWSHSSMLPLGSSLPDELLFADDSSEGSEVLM
Description: HTRF kinase activity biochemical assay, MER.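 Further: phosphorylation of a biotin-tagged tyrosine kinase substrate detected by Eu3+-cryptate antibody and streptavidin-XL665 time-resolved fluorescence, read after 1 h at room temperature.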 Conditions: recombinant kinase, 10 uM ATP, 30 minutes pre-incubation; read-out: HTRF MERTK IC50.

With `CC(C)(O)Cn1cc(Nc2ncc(C3CN(c4nc5ccc(F)cc5o4)C3)nc2C(N)=O)cn1` [Example 28, 6-[1-(6-fluoro-1,3-benzoxazol-2-yl)azetidin-3-yl]-3-{[1-(2-hydroxy-2-methylpropyl)-1H-pyrazol-4-yl]amino}pyrazine-2-carboxamide], in the assay on MC-38 cells (10 mg/kg/d), the “% TGI (dose)” value is reported as 17%. The results for the IC50 at TYRO3 (455-end), at human AXL (473-end) and on human MER (528-end) were 150 nM, 6 nM and 1 nM, respectively.

Consider `CC(C)(O)Cn1cc(Nc2ncc(C3CN(c4nc5ccccc5o4)C3)nc2C(N)=O)cn1` [Example 30, 6-[1-(1,3-benzoxazol-2-yl)azetidin-3-yl]-3-{[1-(2-hydroxy-2-methylpropyl)-1H-pyrazol-4-yl]amino}pyrazine-2-carboxamide], for which the “% TGI (dose)” value in the assay with MC-38 cells (10 mg/kg/d) is listed as 33%. The IC50 (as a rule, the midpoint of a concentration-inhibition curve) at TYRO3 (455-end) was 360 nM; on human AXL (473-end), 11 nM; on human MER (528-end), 3 nM.

Take `CN1CCC(Oc2ccc3nc(N4CC(c5cnc(Nc6cnn(C)c6)c(C(N)=O)n5)C4)oc3c2)C1=O` (stereo not drawn) [Example 72, 6-(1-{6-[(1-methyl-2-oxopyrrolidin-3-yl)oxy]-1,3-benzoxazol-2-yl}azetidin-3-yl)-3-[(1-methyl-1H-pyrazol-4-yl)amino]pyrazine-2-carboxamide]: the “% TGI (dose)” value in the assay with MC-38 cells (30 mg/kg/d) worked out at 44%. Also, the IC50 on TYRO3 (455-end) turned out to be 940 nM; on human AXL (473-end), 3 nM; at human MER (528-end) it was 1 nM.

On to `Cn1cc(Nc2ncc(C3CN(c4nc5ccc(OCCC(C)(C)OP(=O)(O)O)cc5o4)C3)nc2C(N)=O)cn1` [Example 77, 4-{[2-(3-{6-carbamoyl-5-[(1-methyl-1H-pyrazol-4-yl)amino]pyrazin-2-yl}azetidin-1-yl)-1,3-benzoxazol-6-yl]oxy}-2-methylbutan-2-yl dihydrogen phosphate], for which, in the assay on MC-38 cells (15 mg/kg/d), the “% TGI (dose)” value is listed as 39%. Besides, the results for the IC50 at TYRO3 (455-end), on human AXL (473-end) and at human MER (528-end) were 3300 nM, 54 nM and 33 nM, respectively.

With `Cn1cc(Nc2ncc(C3CN(c4nc5ccc(OCc6ccn(C)n6)cc5o4)C3)nc2C(N)=O)cn1` [Example 80, 3-[(1-methyl-1H-pyrazol-4-yl)amino]-6-(1-{6-[(1-methyl-1H-pyrazol-3-yl)methoxy]-1,3-benzoxazol-2-yl}azetidin-3-yl)pyrazine-2-carboxamide], the “% TGI (dose)” value in the assay on MC-38 cells (10 mg/kg/d) was determined as 23%. For the same compound, the half-maximal inhibitory concentration (IC50) at TYRO3 (455-end) is 48 nM; on human AXL (473-end) it was 1 nM; on human MER (528-end), less than 1 nM.

For the compound `Cn1cc(Nc2ccc(C3CN(c4nc5ccc(OCC(C)(C)O)cc5o4)C3)nc2C(N)=O)cn1` [Example 85, 6-{1-[6-(2-hydroxy-2-methylpropoxy)-1,3-benzoxazol-2-yl]azetidin-3-yl}-3-[(1-methyl-1H-pyrazol-4-yl)amino]pyridine-2-carboxamide], in the assay on MC-38 cells (10 mg/kg/d), the “% TGI (dose)” value was found to be 37%. The figures for the IC50 at TYRO3 (455-end), on human AXL (473-end) and at human MER (528-end) were 1850 nM, 4 nM and 2 nM, respectively.

With `CCOC(=O)C(C)(C)c1ccc2nc(N3CC(c4cnc(Nc5cnn(C)c5)c(C(N)=O)n4)C3)oc2c1` [Example 111F, ethyl 2-[2-(3-{6-carbamoyl-5-[(1-methyl-1H-pyrazol-4-yl)amino]pyrazin-2-yl}azetidin-1-yl)-1,3-benzoxazol-6-yl]-2-methylpropanoate], the IC50 stood at 3230 nM at TYRO3 (455-end), 43 nM on human AXL (473-end) and 18 nM on human MER (528-end).

On to `Cn1cc(Nc2ncc(C3CN(c4nc5ccc(OCC(C)(C)OP(=O)(O)O)cc5o4)C3)nc2C(N)=O)cn1` [Example 112, 1-{[2-(3-{6-carbamoyl-5-[(1-methyl-1H-pyrazol-4-yl)amino]pyrazin-2-yl}azetidin-1-yl)-1,3-benzoxazol-6-yl]oxy}-2-methylpropan-2-yl dihydrogen phosphate], for which the results for the concentration for half-maximal inhibition (IC50) on TYRO3 (455-end), at human AXL (473-end) and on human MER (528-end) were 5860 nM, 69 nM and 52 nM, respectively.

For the compound `Cn1cc(Nc2ncc(C3CN(c4nc5ccc(OCC(C)(C)OC(=O)CN)cc5o4)C3)nc2C(N)=O)cn1` [Example 113, 1-{[2-(3-{6-carbamoyl-5-[(1-methyl-1H-pyrazol-4-yl)amino]pyrazin-2-yl}azetidin-1-yl)-1,3-benzoxazol-6-yl]oxy}-2-methylpropan-2-yl glycinate], the IC50 at TYRO3 (455-end) was 160 nM; on human AXL (473-end), 1 nM; on human MER (528-end), less than 1 nM.
